Laboratory results reported in patent publication US20180049457A1, “ENZYMATIC SYNTHESIS OF SOLUBLE GLUCAN FIBER” (E I DU PONT DE NEMOURS AND COMPANY, priority 2014, published 2018).

Assays:
[1] = test system: human faecal microbiota; assay: Colonic fermentation modeling (semi-continuous colon simulator) and measurement of fatty acids; format: cell-based; conditions: test component 1% in ileal fluid, 48 h
Description: Colonic fermentation was modeled using a semi-continuous colon simulator as described by Makivuokko et al. (Nutri. Cancer (2005) 52(1):94-104); in short; a colon simulator consists of four glass vessels which contain a simulated ileal fluid as described by Macfarlane et al. (Microb. Ecol. (1998) 35(2):180-187). The simulator is inoculated with a fresh human faecal microbiota and fed every third hour with new ileal liquid and part of the contents is transferred from one vessel to the next. The ileal fluid contains one of the described test components at a concentration of 1%. The simulation lasts for 48 h after which the content of the four vessels is harvested for further analysis. The further analysis involves the determination of microbial metabolites such as short chain fatty acids (SCFA); also referred to as volatile fatty acids (VFA) and branched chain fatty acids (BCFA). Analysis was performed as described by Holben et al. (Microb. Ecol. (2002) 44:175-185); in short; simulator content was centrifuged and the supernatant was used for SCFA and BCFA analysis. Pivalic acid (internal standard) and water were mixed with the supernatant and centrifuged. After centrifugation, oxalic acid solution was added to the supernatant and then the mixture was incubated at 4° C., and then centrifuged again. The resulting supernatant was analyzed by gas chromatography using a flame ionization detector and helium as the carrier gas. Comparative data generated from samples of LITESSE® ULTRA™ (polydextrose, Danisco), ORAFTI® P95 (oligofructose; fructo-oligosaccharide, “FOS”, Beneo), lactitol (Lactitol MC (4-O-β-D-galactopyranosyl-D-glucitol monohydrate, Danisco), and a negative control is also provided. The concentration of acetic, propionic, butyric, isobutyric, valeric, isovaleric, 2-methylbutyric, and lactic acid was determined (Table 64).

[2] = test system: intestinal microbiota; assay: In vitro gas production by intestinal microbiota (pre-conditioned faecal slurry); format: cell-based
Method: To measure the formation of gas by the intestinal microbiota, a pre-conditioned faecal slurry was incubated with test prebiotic (oligosaccharide or polysaccharide soluble fibers) and the volume of gas formed was measured. Fresh faecal material was pre-conditioned by dilution with 3 parts (w/v) of anaerobic simulator medium, stirring for 1 h under anaerobic conditions and filtering through 0.3-mm metal mesh after which it was incubated anaerobically for 24 h at 37° C.
The simulator medium used was composed as described by G. T. Macfarlane et al. (Microb. Ecol. 35(2):180-7 (1998)) containing the following constituents (g/L) in distilled water: starch (BDH Ltd.), 5.0; peptone, 0.05; tryptone, 5.0; yeast extract, 5.0; NaCl, 4.5; KCl, 4.5; mucin (porcine gastric type III), 4.0; casein (BDH Ltd.), 3.0; pectin (citrus), 2.0; xylan (oatspelt), 2.0; arabinogalactan (larch wood), 2.0; NaHCO3, 1.5; MgSO4, 1.25; guar gum, 1.0; inulin, 1.0; cysteine, 0.8; KH2PO4, 0.5; K2HPO4, 0.5; bile salts No. 3, 0.4; CaCl2×6 H2O, 0.15; FeSO4×7 H2O, 0.005; hemin, 0.05; and Tween 80, 1.0; cysteine hydrochloride, 6.3; Na2S×9 H2O, and 0.1% resazurin as an indication of sustained anaerobic conditions. The simulation medium was filtered through 0.3 mm metal mesh and divided into sealed serum bottles.
Test prebiotics were added from 10% (w/w) stock solutions to a final concentration of 1%. The incubation was performed at 37° C. while maintaining anaerobic conditions. Gas production due to microbial activity was measured manually after 24 h incubation using a scaled, airtight glass syringe, thereby also releasing the overpressure from the simulation unit.
Solutions of chromatographically-purified soluble oligosaccharide/polysaccharide fibers were dried to a constant weight by lyophilization. The individual soluble oligosaccharide/polysaccharide soluble fiber samples were subsequently evaluated as carbon source for in vitro gas production using the method described in the General Methods. PROMITOR® 85 (soluble corn fiber, Tate & Lyle), NUTRIOSE® FM06 (soluble corn fiber or dextrin, Roquette), FIBERSOL-2® 600F (digestion-resistant maltodextrin, Archer Daniels Midland Company & Matsutani Chemical), ORAFTI® GR (inulin from Beneo, Mannheim, Germany), LITESSE® Ultra™ (polydextrose, Danisco), GOS (galactooligosaccharide, Clasado Inc., Reading, UK), ORAFTI® P95 (oligofructose (fructo-oligosaccharide, FOS, Beneo), LACTITOL MC (4-O-β-D-Galactopyranosyl-D-glucitol monohydrate, Danisco) and glucose were included as control carbon sources. Table 61 lists the In vitro gas production by intestinal microbiota at 3 h and 24 h. Table 62 lists the in vitro gas production by intestinal microbiota from controls and the sequences identified from the GTF0459 homolog sequence search. Table 63 lists the in vitro gas production by intestinal microbiota from controls and truncations of homolog sequences identified from the GTF0459 homolog sequence search.

SMILES | Acetic [1] [mM] | Branched Chain Fatty Acids (BCFA) [1] [mM] | Butyric [1] [mM] | Lactic [1] [mM] | Propionic [1] [mM] | Short Chain Fatty Acids (SCFA) [1] [mM] | mL gas formation in 3 h ([2]; Table 61) [mL] | mL gas formation in 3 h ([2]; Table 62) [mL] | mL gas formation in 3 h ([2]; Table 63) [mL] | mL gas formation in 24 h ([2]; 24 h, Table 61) [mL] | mL gas formation in 24.5 h ([2]; Table 62) [mL] | mL gas formation in 24.5 h ([2]; Table 63) [mL]
O.OC[C@@H](O)[C@@H](O[C@@H]1O[C@H](CO)[C@H](O)[C@H](O)[C@H]1O)[C@H](O)[C@@H](O)CO [LACTITOL MC, 4-O-β-D-Galactopyranosyl-D-glucitol monohydrate] | 318 | 7.5 | 94 | 52 | 42 | 506 | – | – | – | – | – | –
O.OC[C@@H](O)[C@@H](O[C@@H]1O[C@H](CO)[C@H](O)[C@H](O)[C@H]1O)[C@H](O)[C@@H](O)CO [LACTITOL ® MC] | – | – | – | – | – | – | 2.0 | 2.0 | 3.0 | 4.8 | 1.5 | 2.0
